In PubChem BioAssay AID1259407 (Chemical Carcinogenesis Research Information System (CCRIS), 2018):
The source made the active and inactive calls. No rule for the calls is given here.

System: CCRIS mutagenicity, Ames/micronucleus/aberration tests
Assay: CCRIS mutagenicity studies

CCOS(C)(=O)=O
mutagenic call (End Point: IN VITRO MICRONUCLEUS, Test System: CHL/IU CELLS, Metabolic Activation: NONE): active; positive | mutagenic call (End Point: IN VITRO MICRONUCLEUS, Test System: V79 CELLS, Metabolic Activation: NONE): active; positive | mutagenic call (End Point: In vitro micronucleus, Test System: Chinese Hamster Ovary (CHO-WBL) cells, Metabolic Activation: None): active; positive (p<0.01) | mutagenic call (End Point: In vivo micronucleus, Test System: Micronucleated hepatocytes, Species: Rat, Strain/Sex: F344/Male, Route: Intraperitoneal): inactive; negative | mutagenic call (End Point: In vivo micronucleus, Test System: Micronucleated hepatocytes, Species: Rat, Strain/Sex: F344/Male, Route: Oral): inactive; negative | mutagenic call (Test System: AMES SALMONELLA TYPHIMURIUM, Strain/Indicator: TA98, Metabolic Activation: NONE, Method: SPIRAL ASSAY): inactive; negative | mutagenic call (Test System: AMES SALMONELLA TYPHIMURIUM, Strain/Indicator: TA98, Metabolic Activation: NONE, Method: STANDARD PLATE): inactive; negative | mutagenic call (Test System: AMES SALMONELLA TYPHIMURIUM, Strain/Indicator: TA98, Metabolic Activation: RAT, LIVER, S-9, AROCLOR 1254, Method: SPIRAL ASSAY): active; positive | mutagenic call (Test System: AMES SALMONELLA TYPHIMURIUM, Strain/Indicator: TA100, Metabolic Activation: NONE, Method: SPIRAL ASSAY): active; positive | mutagenic call (Test System: AMES SALMONELLA TYPHIMURIUM, Strain/Indicator: TA100, Metabolic Activation: NONE, Method: STANDARD PLATE): active; positive | mutagenic call (Test System: AMES SALMONELLA TYPHIMURIUM, Strain/Indicator: TA100, Metabolic Activation: RAT, LIVER, S-9, AROCLOR 1254, Method: SPIRAL ASSAY): inactive; negative | mutagenic call (Test System: AMES SALMONELLA TYPHIMURIUM, Strain/Indicator: TA100, Metabolic Activation: RAT, LIVER, S-9, AROCLOR 1254, Method: STANDARD PLATE): active; positive | mutagenic call (Test System: AMES SALMONELLA TYPHIMURIUM, Strain/Indicator: TA1535, Metabolic Activation: NONE, Method: SPIRAL ASSAY): active; positive | mutagenic call (Test System: AMES SALMONELLA TYPHIMURIUM, Strain/Indicator: TA1535, Metabolic Activation: NONE, Method: STANDARD PLATE): active; positive | mutagenic call (Test System: AMES SALMONELLA TYPHIMURIUM, Strain/Indicator: TA1535, Metabolic Activation: RAT, LIVER, S-9, AROCLOR 1254, Method: SPIRAL ASSAY): active; positive | mutagenic call (Test System: AMES SALMONELLA TYPHIMURIUM, Strain/Indicator: TA1535, Metabolic Activation: RAT, LIVER, S-9, AROCLOR 1254, Method: STANDARD PLATE): active; positive | mutagenic call (Test System: AMES SALMONELLA TYPHIMURIUM, Strain/Indicator: TA1537, Metabolic Activation: NONE, Method: SPIRAL ASSAY): inactive; negative | mutagenic call (Test System: AMES SALMONELLA TYPHIMURIUM, Strain/Indicator: TA1537, Metabolic Activation: NONE, Method: STANDARD PLATE): active; positive | mutagenic call (Test System: AMES SALMONELLA TYPHIMURIUM, Strain/Indicator: TA1537, Metabolic Activation: RAT, LIVER, S-9, AROCLOR 1254, Method: SPIRAL ASSAY): inactive; negative | mutagenic call (Test System: AMES SALMONELLA TYPHIMURIUM, Strain/Indicator: TA1537, Metabolic Activation: RAT, LIVER, S-9, AROCLOR 1254, Method: STANDARD PLATE): active; positive | mutagenic call (Test System: AMES SALMONELLA TYPHIMURIUM, Strain/Indicator: TA1538, Metabolic Activation: RAT, LIVER, S-9, AROCLOR 1254, Method: STANDARD PLATE): active; positive | mutagenic call (Test System: AMES SALMONELLA TYPHIMURIUM, Strain/Indicator: YG7100, Metabolic Activation: NONE, Method: PREINCUBATION): inactive; negative | mutagenic call (Test System: AMES SALMONELLA TYPHIMURIUM, Strain/Indicator: YG7104, Metabolic Activation: NONE, Method: PREINCUBATION): active; positive | mutagenic call (Test System: AMES SALMONELLA TYPHIMURIUM, Strain/Indicator: YG7108, Metabolic Activation: NONE, Method: PREINCUBATION): active; positive | mutagenic call (Test System: AMES SALMONELLA TYPHIMURIUM, Strain/Indicator: YG7112, Metabolic Activation: NONE, Method: PREINCUBATION): active; positive | mutagenic call (Test System: AMES SALMONELLA TYPHIMURIUM, Strain/Indicator: YG7113, Metabolic Activation: NONE, Method: PREINCUBATION): active; positive | mutagenic call (Test System: AMES SALMONELLA TYPHIMURIUM, Strain/Indicator: YG7119, Metabolic Activation: NONE, Method: PREINCUBATION): inactive; negative | mutagenic call (Test System: CHINESE HAMSTER OVARY, Strain/Indicator: CHO-K1-BH4 (HGPRT)/6-THIOGUANINE, Metabolic Activation: NONE, Method: LIQUID SUSPENSION): active; positive | mutagenic call (Test System: CHINESE HAMSTER OVARY, Strain/Indicator: CHO-K1-BH4 (HGPRT)/6-THIOGUANINE, Metabolic Activation: NONE, Method: SUSPENSION/PLATE): active; positive | mutagenic call (Test System: CHINESE HAMSTER OVARY, Strain/Indicator: CHO-K1-BH4 (HGPRT), Metabolic Activation: NONE, Method: MONOLAYER): active; positive | mutagenic call (Test System: CHINESE HAMSTER OVARY, Strain/Indicator: CHO-K1-BH4 (HGPRT), Metabolic Activation: NONE, Method: SUSPENSION/PLATE): active; positive | mutagenic call (Test System: CHINESE HAMSTER V-79, Strain/Indicator: V-79 (HGPRT)/6-THIOGUANINE, Metabolic Activation: NONE): active; positive | mutagenic call (Test System: CHINESE HAMSTER V-79, Strain/Indicator: V-79 (HPRT)/6-THIOGUANINE, Metabolic Activation: NONE, Method: FLUCTUATION TEST): active; positive | mutagenic call (Test System: CHINESE HAMSTER V-79, Strain/Indicator: V-79-MZ (HPRT)/6-THIOGUANINE, Metabolic Activation: NONE): active; positive | mutagenic call (Test System: CHINESE HAMSTER V-79, Strain/Indicator: V-79-UL (HPRT)/6-THIOGUANINE, Metabolic Activation: NONE): active; positive | mutagenic call (Test System: CHINESE HAMSTER V-79, Strain/Indicator: V-79/6-THIOGUANINE, Metabolic Activation: NONE, Method: FLASK ASSAY): active; positive | mutagenic call (Test System: CHINESE HAMSTER V-79, Strain/Indicator: V-79/6-THIOGUANINE, Metabolic Activation: NONE, Method: LIQUID SUSPENSION): active; positive | mutagenic call (Test System: CHINESE HAMSTER V-79, Strain/Indicator: V-79/6-THIOGUANINE, Metabolic Activation: NONE, Method: STANDARD PLATE): active; positive | mutagenic call (Test System: CHINESE HAMSTER V-79, Strain/Indicator: V-79/6-THIOGUANINE, Metabolic Activation: NONE, Method: SUSPENSION/PLATE): active; positive | mutagenic call (Test System: CHINESE HAMSTER V-79, Strain/Indicator: V-79/8-AZAGUANINE, Metabolic Activation: NONE, Method: STANDARD PLATE): active; positive | mutagenic call (Test System: CHINESE HAMSTER V-79, Strain/Indicator: V-79/8-AZAGUANINE, Metabolic Activation: NONE, Method: SUSPENSION/PLATE): active; positive | mutagenic call (Test System: CHINESE HAMSTER V-79, Strain/Indicator: V-79/OUABAIN, Metabolic Activation: NONE, Method: STANDARD PLATE): active; positive | mutagenic call (Test System: CHINESE HAMSTER V-79, Strain/Indicator: V-79/OUABAIN, Metabolic Activation: NONE, Method: SUSPENSION/PLATE): active; positive | mutagenic call (Test System: CHO/HGPRT, Strain/Indicator: CHO-K1-BH4, Metabolic Activation: MOUSE, IN VIVO, Method: HOST-MEDIATED): active; positive | mutagenic call (Test System: E. COLI, Strain/Indicator: WP2, Metabolic Activation: NONE, Method: STANDARD PLATE): active; positive | mutagenic call (Test System: E. COLI, Strain/Indicator: WP2, Metabolic Activation: RAT, LIVER, S-9, AROCLOR 1254, Method: STANDARD PLATE): active; positive | mutagenic call (Test System: E. COLI, Strain/Indicator: WP2 UVRA, Metabolic Activation: HAMSTER, LIVER, S-9, AROCLOR 1254, Method: STANDARD PLATE): inactive; negative | mutagenic call (Test System: E. COLI, Strain/Indicator: WP2 UVRA, Metabolic Activation: HAMSTER, LIVER, S-9, Method: STANDARD PLATE): inactive; negative | mutagenic call (Test System: E. COLI, Strain/Indicator: WP2 UVRA, Metabolic Activation: MOUSE, LIVER, S-9, AROCLOR 1254, Method: STANDARD PLATE): inactive; negative | mutagenic call (Test System: E. COLI, Strain/Indicator: WP2 UVRA, Metabolic Activation: MOUSE, LIVER, S-9, Method: STANDARD PLATE): inactive; negative | mutagenic call (Test System: E. COLI, Strain/Indicator: WP2 UVRA, Metabolic Activation: RAT, LIVER, S-9, Method: STANDARD PLATE): inactive; negative | mutagenic call (Test System: MOUSE LYMPHOMA, Strain/Indicator: L5178Y (HGPRT)/6-THIOGUANINE, Metabolic Activation: NONE, Method: SUSPENSION/PLATE): active; positive | mutagenic call (Test System: MOUSE LYMPHOMA, Strain/Indicator: L5178Y (TK+/TK-)/TRIFLUOROTHYMIDINE, Metabolic Activation: NONE, Method: SUSPENSION/PLATE): active; positive | mutagenic call (Test System: MOUSE LYMPHOMA, Strain/Indicator: L5178Y (TK+/TK-), Metabolic Activation: NONE, Method: FLUCTUATION TEST): active; positive | mutagenic call (Test System: MOUSE LYMPHOMA, Strain/Indicator: L5178Y (TK+/TK-), Metabolic Activation: NONE, Method: IN SITU): active; positive | mutagenic call (Test System: MOUSE LYMPHOMA, Strain/Indicator: L5178Y (TK+/TK-), Metabolic Activation: NONE, Method: LIQUID SUSPENSION): active; positive | mutagenic call (Test System: MOUSE LYMPHOMA, Strain/Indicator: L5178Y (TK+/TK-), Metabolic Activation: RAT, LIVER, S-9, AROCLOR 1254, Method: SUSPENSION/PLATE): active; positive | mutagenic call (Test System: UDS HUMAN CELLS, Strain/Indicator: THY INCORP (NON-S-PHASE), Metabolic Activation: NONE, Method: LIQUID SCINTILLATION COUNTING): active; positive | mutagenic call (Test System: UDS HUMAN LYMPHOCYTES, Strain/Indicator: THY INCORP (NON-S-PHASE), Metabolic Activation: NONE, Method: LIQUID SCINTILLATION COUNTING): active; positive | mutagenic call (Test System: UDS RODENT PRIMARY CELLS, Strain/Indicator: THY INCORP (NON-S-PHASE), Metabolic Activation: NONE, Method: LIQUID SCINTILLATION COUNTING): active; positive
